Experimental data: ChEMBL document CHEMBL6087460, “Generating a Peptide Library Using the Repeats of Amino Acid Scaffolds Created by Sliding the Framework of a 7-mer Human Chemerin Segment and Discovery of Potent Antibacterial and Antimycobacterial Peptides” (J Med Chem, 2025)
Converted amounts (≈) assume the structure as drawn. The source made the active and inactive calls. No cut-off for these calls is given here. Where a SMILES comes first, the peptide text is derived from it.

Key:
[1] = Drug localization in cell membrane of Escherichia coli ATCC 25922 at 3 times MIC by confocal microscopy; format: ADME, cell membranes
Escherichia coli [2] = assay: Antibacterial activity against Escherichia coli ATCC 25922 incubated for 16 to 18 hrs by broth dilution assay; format: functional; conditions: time 16-18 hrs
Klebsiella pneumoniae = assay: Antibacterial activity against Klebsiella pneumoniae ATCC 27736 incubated for 16 to 18 hrs by broth dilution assay; format: functional; conditions: time 16-18 hrs
Pseudomonas aeruginosa = assay: Antibacterial activity against Pseudomonas aeruginosa ATCC BAA-427 incubated for 16 to 18 hrs by broth dilution assay; format: functional; conditions: time 16-18 hrs
Staphylococcus aureus [3] = assay: Antibacterial activity against Staphylococcus aureus ATCC 25923 incubated for 16 to 18 hrs by broth dilution assay; format: functional; conditions: time 16-18 hrs
Bacillus subtilis = assay: Antibacterial activity against Bacillus subtilis 6633 incubated for 16 to 18 hrs by broth dilution assay; format: functional; conditions: time 16-18 hrs
Staphylococcus aureus [4] = assay: Antibacterial activity against methicillin-resistant Staphylococcus aureus 33591 incubated for 16 to 18 hrs by broth dilution assay; format: functional; conditions: time 16-18 hrs
Staphylococcus aureus [5] = assay: Antibacterial activity against methicillin-resistant Staphylococcus aureus BAA-44 incubated for 16 to 18 hrs by broth dilution assay; format: functional; conditions: time 16-18 hrs
Escherichia coli [6] = assay: Induction of resistance development in Escherichia coli ATCC 25922 assessed as fold increase in MIC at sub-MIC measured after 30 passages relative to control; format: functional
Staphylococcus aureus [7] = assay: Induction of resistance development in Staphylococcus aureus ATCC 25923 assessed as fold increase in MIC at sub-MIC measured after 30 passages relative to control; format: functional
Staphylococcus aureus [8] = assay: Induction of resistance development in methicillin-resistant Staphylococcus aureus 33591 assessed as fold increase in MIC at sub-MIC measured after 30 passages relative to control; format: functional
Staphylococcus aureus [9] = assay: Induction of resistance development in methicillin-resistant Staphylococcus aureus BAA-44 assessed as fold increase in MIC at sub-MIC measured after 30 passages relative to control; format: functional
[10] = Retention time of compound by RP-HPLC method; format: physicochemical
[11] = Hemolytic activity in human RBC at 100 uM measured after 40 mins by absorbance based assay relative to control; format: toxicity, cell-based, Erythrocyte
[12] = Hemolytic activity in human RBC measured after 40 mins by absorbance based assay; format: toxicity, cell-based, Erythrocyte; conditions: human red blood cells
Escherichia coli [13] = assay: Bactericidal activity against Escherichia coli ATCC 25922 incubated for 16 to 18 hrs; format: functional; conditions: time 16-18 hrs
Escherichia coli [14] = assay: Antibacterial activity against Escherichia coli ATCC 25922 incubated for 16 to 18 hrs in presence of 10 percent human serum by broth dilution assay; format: functional; conditions: time 16-18 hrs
Staphylococcus aureus [15] = assay: Bactericidal activity against Staphylococcus aureus ATCC 25923 incubated for 16 to 18 hrs; format: functional; conditions: time 16-18 hrs
Staphylococcus aureus [16] = assay: Antibacterial activity against Staphylococcus aureus ATCC 25923 incubated for 16 to 18 hrs in presence of 10 percent human serum by broth dilution assay; format: functional; conditions: time 16-18 hrs
[17] = Cytotoxicity against mouse 3T3-L1 cells assessed as cell viability at 100 uM incubated for 24 hrs by MTT assay relative to control; format: toxicity, cell-based; conditions: 3T3-L1 cells, read-out: Activity
[18] = Cytotoxicity against rat L6 cells assessed as cell viability at 100 uM incubated for 24 hrs by MTT assay relative to control; format: toxicity, cell-based; conditions: L6 cells, read-out: Activity
Escherichia coli [19] = assay: Bactericidal activity against Escherichia coli ATCC 25922 at MIC incubated for 60 mins by time kill assay; format: functional, organism-based
Staphylococcus aureus [20] = assay: Bactericidal activity against Staphylococcus aureus ATCC 25923 at MIC incubated for 60 mins by time kill assay; format: functional, organism-based
Escherichia coli [21] = assay: Induction of membrane depolarization in Escherichia coli ATCC 25922 by diSC3-5 dye based analysis; format: functional, organism-based
Staphylococcus aureus [22] = assay: Induction of membrane depolarization in Staphylococcus aureus ATCC 25923 by diSC3-5 dye based analysis; format: functional, organism-based
Escherichia coli [23] = assay: Disruption of plasma membrane integrity in Escherichia coli ATCC 25922 by SYTOX-Green uptake assay; format: functional, organism-based
Staphylococcus aureus [24] = assay: Disruption of plasma membrane integrity in Staphylococcus aureus ATCC 25923 by SYTOX-Green uptake assay; format: functional, organism-based
Escherichia coli [25] = assay: Disruption of membrane integrity in Escherichia coli ATCC 25922 by PI staining based analysis; format: functional, organism-based
Staphylococcus aureus [26] = assay: Disruption of membrane integrity in Staphylococcus aureus ATCC 25923 by PI staining based analysis; format: functional, organism-based
[27] = Hemolytic activity in human RBC assessed as disruption of membrane integrity by Alexa Fluor-Annexin V staining based analysis; format: toxicity, cell-based; conditions: erythrocyte
[28] = system: Mycolicibacterium smegmatis; assay: Antitubercular activity against Mycobacterium smegmatis incubated for 24 hrs by rezasurin dye based assay; format: functional
[29] = Stability in 10 percent human serum assessed as compound remaining measured after 60 mins by RP-HPLC analysis; format: ADME, cell-free; conditions: 10% human serum, read-out: Stability

Row | Compound | MIC (Escherichia coli [2]) [µM] | MIC (Klebsiella pneumoniae) [µM] | MIC (Pseudomonas aeruginosa) [µM] | MIC (Staphylococcus aureus [3]) [µM] | MIC (Bacillus subtilis) [µM] | MIC (Staphylococcus aureus [4]) [µM] | MIC (Staphylococcus aureus [5]) [µM] | Retention_time [10] [min] | HC50 at 40 min [12] [mM] | further results
1 | CC(C)C[C@H](NC(=O)[C@H](CCCNC(=N)N)NC(=O)[C@@H](NC(=O)[C@H](CC(C)C)NC(=O)[C@H](CCCNC(=N)N)NC(=O)[C@@H](NC(=O)[C@H](CC(C)C)NC(=O)[C@H](CCCNC(=N)N)NC(=O)[C@@H](NC(=O)[C@H](CC(C)C)NC(=O)[C@H](CCCNC(=N)N)NC(=O)c1cc(C(=O)O)ccc1-c1c2ccc(=[N+](C)C)cc-2oc2cc(N(C)C)ccc12)C(C)C)C(C)C)C(C)C)C(=O)N[C@H](C(=O)O)C(C)C.[Cl-] (HELM PEPTIDE1{[CN(C)c1ccc2c(-c3ccc(C(=O)O)cc3C(=O)[*:2])c3ccc(=[N+](C)C)cc-3oc2c1].R.L.V.R.L.V.R.L.V.R.L.V}$$$$V2.0) | – | – | – | – | – | – | – | – | – | Drug uptake [1]: Active
2 | CN(C)[C@@H]1C(O)=C(C(N)=O)C(=O)[C@@]2(O)C(O)=C3C(=O)c4c(O)cccc4[C@@](C)(O)[C@H]3C[C@@H]12 [TETRACYCLINE] | 3.1 (≈ 1.38 µg/mL) | 3.1 (≈ 1.38 µg/mL) | 50 (≈ 22.2 µg/mL) | 3.1 (≈ 1.38 µg/mL) | 1.6 (≈ 0.711 µg/mL) | 100 (≈ 44.4 µg/mL) | 100 (≈ 44.4 µg/mL) | – | – | fold change (FC) (Escherichia coli [6]): 32; fold change (FC) (Staphylococcus aureus [7]): 64; fold change (FC) (Staphylococcus aureus [8]): <=64; fold change (FC) (Staphylococcus aureus [9]): 128
3 | H-LGRLLGRLLGRL-OH | 9.4 | 37.4 | 37.4 | 9.4 | 9.4 | 9.4 | 4.7 | 15.4 | 2 | Activity ([11]; erythrocyte, 40 min, 100 µM): Non-toxic; MBC (Escherichia coli [13]): 18.2 µM; MIC (Escherichia coli [14]): 18.2 µM; MBC (Staphylococcus aureus [15]): 18.2 µM; MIC (Staphylococcus aureus [16]): 18.2 µM; viability at 24 h, 100 µM [17]: > 80%; viability at 24 h, 100 µM [18]: > 80%; Activity (Escherichia coli [19]): Active; Exhibited Rapid Kinetics; Activity (Staphylococcus aureus [20]): Active; Exhibited Rapid Kinetics; Activity (Escherichia coli [21]): Active; Activity (Staphylococcus aureus [22]): Active; Activity (Escherichia coli [23]): Active; Activity (Staphylococcus aureus [24]): Active; Activity (Escherichia coli [25]): Active; Activity (Staphylococcus aureus [26]): Active; Activity [27]: Non-toxic; MIC [28]: 5 µM
4 | H-KVLKVLKVLKVLKVL-OH | 1.8 | 3.6 | 14.5 | 3.6 | 3.6 | 3.6 | 3.6 | 20.77 | 0.256 | hemolysis at 40 min, 100 µM ([11]; human red blood cells, read-out: Activity): 20%; remaining at 1 h [29]: 65%
